This is an account of results in patent US10399966B2, “Compounds for treatment of trypanosomes and neurological pathogens and uses thereof” (The University of North Carolina at Chapel Hill, priority 2016, dated 2019).

The test system of data set [1] is Leishmania amazonensis. Nature of the data set: Antimicrobial activity against Leishmania amazonensis. The data set is classed as cell-based. As to conditions: Table 1, Leishmania amazonensis.
Data set [2] in a line: Brain and plasma time-course after oral dosing. The format is in vivo, mouse. Here is the method:
The brain and plasma concentrations of compound 1 were studied in a time-course experiment following oral dosing at 50 mg/kg (Table 15). […] At 24 h, the plasma concentrations are undetectable and brain levels are down to sub-micromolar concentrations. Compared to the previous experiment (Table 14), the BPR ratio for 1 is lower at 1 h post-dose (1.48 vs. 4.0) probably due to the oral route of administration (as opposed to the ip route used before) leading to slower systemic absorption and distribution.

Data set [3] relates to human lymphocytes CRL-8155. Nature of the data set: Cytotoxicity against CRL-8155 cells.
Description: The selectivity of each compound for the parasite over each of the two cell lines was calculated.
[4] abbreviates: single oral dose 50 mg/kg, mice, 1 h.
Setting [5] is: single oral dose 50 mg/kg, mice, 4 h.
Where [6] appears, read: single oral dose 50 mg/kg, mice, 8 h.

In general, EC50 refers to the concentration that produces a half-maximal response. As usually defined, the EC90 is the point of the concentration-response curve where the effect stands at 90%. Consider `O=C(Nc1ccc2sc(-c3ccc(F)c(F)c3)nc2c1)N1CC[C@H](F)C1` [Compound 1, (S)-2-(3,4-Difluorophenyl)-5-(3-fluoro-N-pyrrolidylamido)benzothiazole], for which, in data set [1], the EC50 is above 10 µM. In data set [2] (mouse, in vivo, po, 50 mg/kg), the “AUC0 min-∞, brain” value turned out to be 43116.8 ± 2304 µM·min; the “AUC0 min-∞, plasma” value came out at 10798 ± 1975 µM·min; the “[compd]Brain” value is given as “sub-micromolar”. Further, in data set [2] (setting [4]), the Brain/plasma ratio was determined as 1.48, the “[compd]Brain” value stood at 38.23 ± 13.51 µM and the “[compd]Plasma” value was 27.14 ± 9.91 µM. In data set [2] (setting [5]), the Brain/plasma ratio was 4.43, the “[compd]Brain” value was determined as 45.2 ± 10.4 µM and the “[compd]Plasma” value came to 10.25 ± 2.21 µM. In data set [2] (setting [6]), the Brain/plasma ratio amounted to 5.48, the “[compd]Brain” value came out at 48.08 ± 2.47 µM and the “[compd]Plasma” value is 8.97 ± 1.05 µM. Further, the “toxicity to the CRL-8155 cells (in words)” value in data set [3] is on record as “no detectable toxicity”. Besides, in data set [3] (read-out: CRL-8155 EC50, concentration required to inhibit growth by 50%, human lymphoblasts), the EC50 is above 50 µM. Besides, the 90% effect concentration (EC90) in data set [3] (read-out: CRL-8155 EC90, concentration required to inhibit growth by 90%, human lymphoblasts) is above 50 µM.
